Several values for one entry are separate records, joined by “and”; a condition that tells them apart may be missing. Equal entries are not always repeated. Where two headings read alike, the source gives them in different places.
Columns and labels:
in vitro = assay type: cell-based; details: human, cem cells
Experimental: The toxic effect on non-infected CEMs is assessed by a […] reaction based on the capacity of living cells to reduce 3-(4,5 dimethylthiazol-2-yl)-2,5 diphenyltetrazolium bromide into formazan after incubation for five days in the presence of various concentrations of the compounds. The results are expressed as the lowest concentration of compound which results in at least 50% inhibition of the formation of formazan (CD50).
(§1) 2. Anti-HIV activity on CEM TK- cells of Bis(S-acyl-2-thioethyl) phosphotriesters derivatives of acyclovir, as compared with those of the parent nucleoside and of AZT are shown in Table 2.

HSV-1 TK- in MRC-5 cells = assay: Anti-HSV activity on MRC-5 cells, HSV-1 TK-; assay type: cell-based, Herpes simplex virus type 1 TK-; details: Human alphaherpesvirus 1, MRC5, read-out: HSV-1 TK- EC50
From the text: (§2) The experimental procedure used for evaluation of activities against Herpes simplex virus type 1 (HSV-1) is the as described by Genu-Dellac et al. in Nucleosides and Nucleotides, 10, 1345, (1991).
(§3) 3. Anti HSV activity on MRC-5 cells of Bis(S-acyl-2thioethyl)phosphotriesters derivatives of acyclovir is compared to that of Acyclovir in Table 3.
(§4) EC50 represents the molar concentration which produces a 50% inhibition of HSV-1 replication. Significant activity is shown.

[1] = system: Herpes simplex virus type 1 (HSV-1) in MRC-5 cells; assay: Anti-HSV activity on MRC-5 cells, HSV-1; assay type: cell-based; details: Human alphaherpesvirus 1, MRC5, 50% inhibition of HSV-1 replication
From the text: as §2, §3, §4

[2] = system: Human Immunodeficiency virus (HIV-1, LAI isolate) replication in CEM TK- cells; assay: Anti-HIV activity on CEM TK- cells; assay type: cell-based; details: Human immunodeficiency virus 1, CEM-TK(-), read-out: EC50 (anti-HIV)
Experimental: The experimental procedure used for evaluation of activities against Human Immunodeficiency virus (HIV) is as follows:
HIV-1 replication (LAI isolate) in CEM cells are measured by assaying for […] (RTase) in the culture supernatant after infection for five days. This activity reflects the presence of the virus released by the cells. After absorption of the virus, the test compounds are added at various concentrations in the culture medium. Antiviral activity is expressed as the lowest concentration of compound which reduces the vital production by at least 50% (ED50)
as §1
In Table 2, EC50 represents the molar concentration which produces a 50% inhibition of HIV replication. Significant inhibition is shown.

[3] = system: Hepatitis B virus (HBV) replication, HBV virion, in transfected HepG2 (2.2.15) cells; assay: Anti-HBV activity on transfected HepG2 (2.2.15) cells (HBV virion); assay type: cell-based; details: for EC50: 50% inhibition of HBV replication; for EC90: 90% inhibition of HBV replication; for SI: SI = CC50/EC90
From the text: (§5) The experimental procedure used for evaluation of activity against Hepatitis B virus is as previously described by Korba and Milman in Antiviral Res. […].
(§6) 1. Anti-HBV activity on transfected HepG2 (2.2.15) cells of Bis(S-acyl-2-thioethyl)phosphotriester derivatives of Acyclovir, (compound 9 of Figure I), as compared with those of the parent nucleoside and of 2',3'-dideoxyguanosine (ddG) and 2',3'-dideoxycytidine (ddC) are shown in Table 1.
(§7) In Table 1, EC90 and EC50 represent the molar concentrations which provide respectively a 90% and a 50% inhibition of HBV replication. CC50 represents the molar concentration which reduces the viability of non-infected cells by 50%.

[4] = Viability of non-infected cells (CC50, Table 1); assay type: cell-based; details: human, hepg2 2.2.15 cells, reduces viability of non-infected cells by 50%
From the text: as §5, §6, §7

Cytomegalovirus = details: background; thymidine kinase activity reduced or missing; cited from earlier work
[5] = system: Human Immunodeficiency virus (HIV); details: background; cited from earlier work
Epstein-Barr virus = details: background; thymidine kinase activity reduced or missing; cited from earlier work
Hepatitis B virus (HBV) = details: background; cited from earlier work
[6] = system: Herpes Simplex virus (HSV); details: background; due to selective monophosphorylation by HSV thymidine kinase; cited from earlier work
HepG2 (2.2.15) cells = assay: Viability of non-infected cells (CC50, Table 1); assay type: cell-based; details: reduces viability of non-infected cells by 50%
From the text: as §5, §6, §7

[7] = Hepatitis B virus, HepG2 2.2.15, transfected HepG2 (2.2.15) cells, read-out: HBV virion EC50
[8] = Hepatitis B virus, HepG2 2.2.15, transfected HepG2 (2.2.15) cells
[9] = Hepatitis B virus, HepG2 2.2.15, read-out: HBV virion EC50, transfected HepG2 (2.2.15) cells

## CC(C)(C)C(=O)SCCOP(=O)(OCCOCn1cnc2c(=O)[nH]c(N)nc21)OCCSC(=O)C(C)(C)C [Bis(SPTE)ACVMP, O-[1-(Methyl-[9-guanin-yl]) -1-hydroxyethyl-2-yl]-O',O"-bis(S-pivaloyl-2-thioethyl) phosphate]
In vitro
  CC50 at 120 h: > 10 µM
  cytotoxicity at 120 h, 10 µM: 26%
HSV-1 TK- in MRC-5 cells
  EC50: 10 µM
[1]
  EC50: 2.5 µM
[2]
  EC50: 3.6 µM
[3]; [7]
  EC50: 0.2 ± 0.04 µM
[3]; [8]
  EC90: 7.1 ± 0.8 µM
[3]
  SI: 224
[4]
  CC50: 1590 ± 131 µM

## CC(=O)SCCOP(=O)(OCCOCn1cnc2c(=O)[nH]c(N)nc21)OCCSC(C)=O [Bis(SATE)ACVMP, O-[1-(Methyl-[9-guanin-yl])-1-hydroxyethyl-2-yl]-O',O"-bis(S-acetyl-2-thioethyl) phosphate]
In vitro
  CC50 at 120 h: > 100 µM
  cytotoxicity at 120 h, 100 µM: 0%
HSV-1 TK- in MRC-5 cells
  EC50: 100 µM
[1]
  EC50: 1.25 µM
[2]
  EC50: 77 µM
[3]; [7]
  EC50: 0.7 ± 0.1 µM
[3]; [8]
  EC90: 5.1 ± 1 µM
[3]
  SI: 194
[4]
  CC50: 987 ± 99 µM

## Nc1nc2c(ncn2COCCO)c(=O)[nH]1 [Acyclovir, acyclovir]
Cytomegalovirus
  activity against Cytomegalovirus (in words): poorly active
[5]
  activity against HIV (in words): no activity
Epstein-Barr virus
  activity against Epstein-Barr virus (in words): poorly active
In vitro
  CC50 at 120 h: > 100 µM
  cytotoxicity at 120 h, 100 µM: 0%
HSV-1 TK- in MRC-5 cells
  EC50: > 100 µM
[1]
  EC50: 0.63 µM
[2]
  EC50: > 100 µM
[3]; [9]
  EC50: 111 ± 15 µM
[3]; [8]
  EC90: > 100 µM
Hepatitis B virus (HBV)
  activity against HBV (in words): no activity
[6]
  anti-herpetic activity (in words): anti-herpetic activity
[4]
  CC50: 631 ± 40 µM

## Nc1ccn([C@H]2CC[C@@H](CO)O2)c(=O)n1 [ddC, 2',3'-dideoxycytidine]
[3]; [9]
  EC50: 1.3 ± 0.2 µM
[3]
  SI: 20 and 30
[3]; transfected HepG2 (2.2.15) cells, read-out: HBV virion EC50
  EC50: 2.2 ± 0.3 µM
HepG2 (2.2.15) cells
  CC50: 218 ± 19 µM
[4]
  CC50: 219 ± 19 µM

## Cc1cn([C@H]2C[C@H](N=[N+]=[N-])[C@@H](CO)O2)c(=O)[nH]c1=O [AZT]
In vitro
  CC50 at 120 h: > 100 µM
  cytotoxicity at 120 h, 100 µM: 5%
[2]
  EC50: > 100 µM
